Source: patent US9416149B2, “Methods to modulate Rac1 import and to treat pulmonary fibrosis” (University of Iowa Research Foundation, priority 2013, dated 2016)

Assays:
[1] = test system: Macrophages; assay: H2O2 generation in macrophages exposed to chrysotile asbestos (pHPA assay); format: cell-based
Experimental: (§1) Extracellular H2O2 production was determined fluorometrically, as previously described (He, C., et al., Mitochondrial Cu,Zn-Superoxide Dismutase Mediates Pulmonary Fibrosis by Augmenting H2O2 Generation. J Biol Chem, 2011. 286(17): p. 15597-607). Briefly, cells were incubated in phenol-red free Hanks' balanced salt solution supplemented with 6.5 mM glucose, 1 mM HEPES, 6 mM sodium bicarbonate, 1.6 mM pHPA, and 0.95 μg/ml HRP. Fluorescence of the pHPA-dimer was measured using a spectrofluorometer at excitation of 320 nm and emission of 400 nm. Mitochondrial H2O2 was measured by resuspending mitochondria in phenol-red free Hanks' balanced salt solution supplemented with 6.5 mM glucose, 1 mM HEPES, 6 mM sodium bicarbonate, 1.6 mM pHPA, 0.95 μg/ml HRP and 5 mM α-ketoglutarate.

[2] = test system: Macrophages; assay: Mitochondrial H2O2 generation in macrophages exposed to chrysotile asbestos (pHPA assay); format: cell-based; settings: Example 1, FIG. 2; DGBP 10 mM; chrysotile asbestos 10 μg/cm^2; isolated mitochondria
Experimental: as §1
(§2) Mitochondria were isolated as previously described (He, C., et al., Mitochondrial Cu,Zn-Superoxide Dismutase Mediates Pulmonary Fibrosis by Augmenting H2O2 Generation. J Biol Chem, 2011. 286(17): p. 15597-607).

[3] = test system: Rac1; assay: Mitochondrial Rac1 import, immunoblot for Flag-Rac1 in isolated mitochondria of transfected macrophages; format: cell-based; settings: for localization of Rac1 to the mitochondria: Example 2, FIG. 8D
Experimental: as §2
(§3) Whole cells lysates and sub-cellular fractions were separated by SDS-PAGE and transferred to PVDF membranes. Immunoblot analyses on the membranes were performed with the designated antibodies followed by the appropriate secondary antibody cross-linked to HRP.
(§4) To determine if DGBP inhibits Rac1 import into mitochondria, we exposed macrophages to vehicle (water) or DGBP in cells transfected with an empty control or a wild-type Rac1 expression vector (pRK-Flag-Rac1). […] To confirm that DGBP reduced Rac1 import secondary to inhibiting geranylgeranylation, an immunoblot analysis for Rap 1A, which only recognizes non-geranylgeranylated proteins and is indicative of reduced GGPP levels was performed (Weivoda, M. M. and R. J. Hohl, The effects of direct inhibition of geranylgeranyl pyrophosphate synthase on osteoblast differentiation. J Cell Biochem, 2011. 112(6): p. 1506-13, Wasko, B. M., A. Dudakovic, and R. J. Hohl, Bisphosphonates induce autophagy by depleting geranylgeranyl diphosphate. J Pharmacol Exp Ther, 2011. 337(2): p. 540-6). […] To examine whether DGBP altered H2O2 levels, cells were treated similarly as above described with DGBP (10 mM).

[4] = test system: Rap1A; assay: Geranylgeranylation, immunoblot for non-geranylgeranylated Rap1A in macrophages; format: cell-based
Experimental: as §3, §4

[5] = test system: chrysotile-induced pulmonary fibrosis; assay: Chrysotile asbestos-induced pulmonary fibrosis in mice, DGBP via subcutaneous osmotic pump; format: in vivo
Experimental: To determine the biological relevance of DGBP on oxidative stress in vivo, WT mice were exposed to asbestos (100 μg i.t.). The mice were treated with vehicle or DGBP via administration utilizing a subcutaneous osmotic pump. After 21 days, the mice were euthanized, and lung oxidative stress was determined by GSH assay.
(§5) Wild-type C57Bl/6 mice were from Jackson Laboratories (Bar Habor, Me.). The University of Iowa Institutional Animal Care and Use Committee approved all protocols. After equilibration, osmotic pumps (Alzet, Cupertino, Calif.) containing either vehicle (water) or DGBP (0.2 mg/kg/day) were implanted subcutaneously, as describe previously (Erickson, J. R., et al., A dynamic pathway for calcium-independent activation of CaMKII by methionine oxidation. Cell, 2008. 133(3): p. 462-74). Bleomycin (2.0 U/kg) or chrysotile ([…]) was administered intratracheally. Mice were euthanized and fibrosis determined as previously described (Osborn-Heaford, H. L., et al., Mitochondrial Rac1 GTPase Import and Electron Transfer from Cytochrome c Are Required for Pulmonary Fibrosis. The Journal of biological chemistry, 2012. 287(5): p. 3301-12, He, C., et al., Accelerated Development of Pulmonary Fibrosis via Cu,Zn-superoxide Dismutase-induced Alternative Activation of Macrophages. J Biol Chem, 2013. 288(28): p. 20745-57).
as §2
(§6) Lung tissue was dried to stable weight and acid hydrolyzed with 6N HCl for 24 h at 120° C. Hydroxyproline concentration normalized, to dry weight of the lung, was determined as described previously (Osborn-Heaford, H. L., et al., Mitochondrial Rac1 GTPase Import and Electron Transfer from Cytochrome c Are Required for Pulmonary Fibrosis. The Journal of biological chemistry, 2012. 287(5): p. 3301-12).
(§7) Reduced and oxidized glutathione in the lung were determined as described previously (He, C., et al., Mitochondrial Cu,Zn-Superoxide Dismutase Mediates Pulmonary Fibrosis by Augmenting H2O2 Generation. J Biol Chem, 2011. 286(17): p. 15597-607).
as §3
To determine if geranylgeranylation of Rac1 is associated with other forms of pulmonary fibrosis, the role of DGBP in modulating chrysotile-induced pulmonary fibrosis was tested. WT mice with subcutaneous osmotic pumps delivering vehicle or DGBP were exposed to chrysotile as previously described (He, C., et al., Mitochondrial Cu,Zn-Superoxide Dismutase Mediates Pulmonary Fibrosis by Augmenting H2O2 Generation. J Biol Chem, 2011. 286(17): p. 15597-607, Osborn-Heaford, H. L., et al., Mitochondrial Rac1 GTPase Import and Electron Transfer from Cytochrome c Are Required for Pulmonary Fibrosis. The Journal of biological chemistry, 2012. 287(5): p. 3301-12, Murthy, S., et al., Rac1-mediated Mitochondrial H2O2 Generation Regulates MMP-9 Gene Expression in Macrophages via Inhibition of SP-1 and AP-1. J Biol Chem, 2010. 285(32): p. 25062-73). It was first determined if DGBP altered mitochondrial Rac1 localization in BAL cells. Alveolar macrophages were obtained by BAL 21 days after chrysotile exposure. […] Lung oxidative stress was also evaluated. […]

[6] = test system: bleomycin-induced pulmonary fibrosis; assay: Bleomycin-induced pulmonary fibrosis in mice, DGBP via subcutaneous osmotic pump; format: in vivo
Experimental: as §5, §2, §6, §7, §3
Active TGF-β in BAL fluid was measured by ELISA (R&D, Minneapolis, Minn.), according to manufacturer's instructions.
Because bleomycin increased mitochondrial oxidative stress in alveolar macrophages in vivo, it was next evaluated if bleomycin modulates Rac1 mitochondrial import. Osmotic pumps containing either vehicle (water) or DGBP were implanted subcutaneously in WT mice. DGBP was delivered at a dose of 0.2 mg/kg/day. Mice were exposed to saline or bleomycin the following day, and BAL was performed 21 days later to obtain alveolar macrophages. Mitochondria were isolated to investigate Rac1 localization.

[7] = test system: bleomycin-induced pulmonary fibrosis; assay: Progression of bleomycin-induced pulmonary fibrosis in mice, osmotic pumps installed seven days after bleomycin; format: in vivo
Experimental: as §5
Lung tissue was dried to stable weight and acid hydrolyzed with 6N HCl for 24 h at 120° C. […]

[8] = test system: THP-1 cells; assay: Mitochondrial H2O2 generation in THP-1 cells exposed to chrysotile (pHPA assay); format: cell-based; settings: FIG. 11F, DGBP 10 μM overnight, chrysotile 10 μg/cm^2 for 1 h
Experimental: (§8) THP-1, MLE-12, and HLF-1 cell lines were obtained from American Type Culture Collection (Manassas, Va.). Cells were maintained in RPMI-1640, Hites, or F-12K media supplemented with fetal bovine serum and penicillin/streptomycin. All experiments were performed with media supplemented with 0.5% serum.
as §1
(§9) Mitochondria were isolated as previously described (He, C., et al., Mitochondrial Cu,Zn-Superoxide Dismutase Mediates Pulmonary Fibrosis by Augmenting H2O2 Generation. J Biol Chem, 2011. 286(17): p. 15597-607). […]

[9] = test system: MLE-12 cells; assay: Mitochondrial H2O2 generation in MLE-12 cells exposed to chrysotile (pHPA assay); format: cell-based; settings: FIG. 11G, DGBP 10 μM overnight, chrysotile 10 μg/cm^2 for 1 h
Experimental: as §8, §1, §9

[10] = test system: HLF-1 cells; assay: Mitochondrial H2O2 generation in HLF-1 cells exposed to chrysotile (pHPA assay); format: cell-based; settings: FIG. 11H, DGBP 10 μM overnight, presence or absence of chrysotile
Experimental: as §8, §1, §9

[11] = Apparent toxicity at the concentrations and doses used in the studies; settings: in vitro or in vivo

Q: What does the source list for digeranyl bisphosphonate [DGBP]?
A: H2O2 generation ([1]; Example 1, FIG. 1, DGBP 10 mM, chrysotile asbestos 10 μg/cm^2): significant reduction in H2O2 to control levels; H2O2 levels ([1]; Example 2, FIG. 8F, DGBP 10 mM overnight, presence and absence of chrysotile 10 μg/cm^2, 90 min): decreased H2O2 to control levels; mitochondrial H2O2 generation [2]: abrogated asbestos-induced mitochondrial H2O2 generation below control levels; mitochondrial Rac1 import ([3]; Example 1, FIG. 3A, chrysotile asbestos 10 μg/cm^2 for 1 h): inhibited mitochondrial Rac1 import in a dose-dependent manner; localization of Rac1 to the mitochondria ([3]; 1 mM DGBP overnight, chrysotile 10 μg/cm^2 for 90 min): Chrysotile induced localization of Rac1 to the mitochondria; localization of Rac1 to the mitochondria ([3]; 10 mM DGBP overnight, presence or absence of chrysotile): Rac1 was absent from the mitochondria; geranylgeranylation (Rap1A immunoblot) ([4]; Example 1, FIG. 3B, whole cell lysates): inhibition of geranylgeranylation; Rap1A geranylgeranylation ([4]; Example 2, FIG. 8E, 10 mM DGBP, isolated cytoplasm): impaired Rap1A geranylgeranylation; lung oxidative stress (GSH assay) ([5]; Example 1, FIG. 4, asbestos 100 μg i.t., after 21 days, vs vehicle): significant reduction in lung oxidative stress; pulmonary fibrosis (hydroxyproline assay) ([5]; Example 1, FIG. 5, chrysotile asbestos 100 μg i.t., 21 days, vs vehicle): significantly less pulmonary fibrosis; oxidized GSH (% GSSG) in the lung, vehicle relative to DGBP ([5]; FIG. 11B, chrysotile, 21 days): 2.5 fold; lung histology (Masson's trichrome) ([5]; FIG. 11D, chrysotile, after 21 days): essentially normal; lung hydroxyproline ([5]; FIG. 11E, chrysotile, after 21 days, water vs DGBP): confirmed by hydroxyproline assay; pulmonary fibrosis (hydroxyproline assay) ([6]; Example 1, FIG. 6, bleomycin 2.0 U/kg i.t., 21 days, vs vehicle): significantly less pulmonary fibrosis; immunoreactive Rac1 in alveolar macrophage mitochondria ([6]; FIG. 9B, DGBP 0.2 mg/kg/day, bleomycin 2.0 U/kg, BAL 21 days later): significant reduction in immunoreactive Rac1 in mitochondria; non-geranylgeranylated Rap1A in BAL cells ([6]; FIG. 9B, DGBP 0.2 mg/kg/day, immunoblot): non-geranylgeranylated Rap 1A was increased; oxidized GSH (% GSSG) in lung, vehicle vs DGBP ([6]; FIG. 9C, bleomycin, after 21 days): significantly higher oxidized GSH (% GSSG) than the lungs of mice that received DGBP; active TGF-β in BAL fluid, vehicle relative to DGBP ([6]; FIG. 9D, bleomycin, DGBP 0.2 mg/kg/day, ELISA): greater than 5 fold; lung histology (Masson's trichrome) ([6]; FIG. 9F, bleomycin): normal lung architecture; lung hydroxyproline ([6]; FIG. 9G, following bleomycin exposure, vs vehicle): significantly less hydroxyproline; lung collagen deposition (Masson's trichrome) ([7]; FIG. 10C, DGBP 0.2 mg/kg/day from seven days after bleomycin, 21 days after bleomycin): small patches of collagen deposition, but there was significantly less collagen compared to mice that received vehicle; lung hydroxyproline content ([7]; FIG. 10D, DGBP from seven days after bleomycin, vs vehicle): significantly less hydroxyproline; mitochondrial H2O2 generation [8]: reduced chrysotile-induced H2O2 significantly at all time points; mitochondrial H2O2 generation [9]: increased H2O2 generation in cells exposed to chrysotile; mitochondrial H2O2 generation [10]: increased H2O2 in the presence or absence of chrysotile; apparent toxicity [11]: not associated with apparent toxicity in vitro or in vivo
